Like-named read-outs stand apart in the source and are kept apart here.
How the values were obtained:
[1] = test system: wheat; details: cited from earlier work
[2] = test system: durum wheat (Triticum durum; TRZDU); assay: 2016 field trial, Alberta: weed-free tolerance trial, visual phytotoxicity (head deformity) on durum wheat
Description: (§1) One field trial was conducted in Alberta, Canada in 2016 to evaluate whether wheat injury caused by 2,4-D could be reduced by tank-mixing with a herbicide that is preformulated with cloquintocet acid. 2,4-D was applied as either an ester (660 gae/L 2,4-D EHE) or choline salt (456 gae/L 2,4-D choline) at a rate of 700 gae/ha. […] Some treatments were applied with Intake adjuvant at 1% v/v. Intake is a blend of a non-ionic surfactant and a paraffinic oil and is used to improve the spreading and wetting of herbicides. Herbicide treatments were made to spring wheat (Triticum aestivum) and durum wheat (Triticum durum) at the B12-B13 stage. Head deformity was evaluated at 42, 55 and 71 days after treatment (DAT).
(§2) This trial was established a weed-free tolerance trial. All herbicide treatments were applied post-emergence in the spring (e.g., Jun. 2, 2016). Herbicides were applied with a tractor-mounted sprayer using CO2 as a propellant. The sprayer delivered a uniform spray pattern that provided thorough coverage of the foliage using a 100 L/ha spray volume. Applications were made to spring wheat and durum wheat at the 2-3 leaf stage. Phytotoxicity to wheat was visually assessed as percent overall injury, compared to an untreated control plot. The overall injury assessments were based on visual ratings of growth inhibition, leaf deformity, epinasty, chlorosis, and delay in maturity. The primary injury observed with 2,4-D was head deformity, and therefore those are the only evaluations summarized below. The trial was designed as a randomized complete block with four replicates. Referring now to Table 1, 2,4-D ester (e.g., 2,4-D EHE) and 2,4-D choline at a rate of 700 gae/ha caused head deformity to spring wheat peaking at 8% and to durum wheat peaking at 4%. […] The results provide that cloquintocet (or herbicides containing cloquintocet) could be mixed with 2,4-D ester or choline to reduce head deformity in spring wheat caused by early applications of 2,4-D.

[3] = test system: spring wheat (Triticum aestivum; TRZAS); assay: 2016 field trial, Alberta: weed-free tolerance trial, visual phytotoxicity (head deformity) on spring wheat
Description: as §1, §2

[4] = test system: durum wheat (Triticum durum; TRZDU); details: in vivo
Description: (§3) Two weed-free tolerance field trials were conducted in Alberta and Manitoba, Canada in 2017 to evaluate whether wheat injury caused by 2,4-D ester could be reduced by tank-mixing with cloquintocet-containing products. […] The rate of cloquintocet parent acid delivered by the tank-mix partners ranged from 3.5 to 63.7 gae/ha. All herbicide treatments were applied post-emergence in the spring (Jun. 16, 2017 to Jun. 26, 2017). Herbicides were applied with tractor- or bicycle-mounted sprayers using CO2 as a propellant. The sprayer delivered a uniform spray pattern that provided thorough coverage of the foliage using a 100 L/ha spray volume. Applications were made to spring wheat (Triticum aestivum) and durum wheat (Triticum durum) at the three-leaf stage. Phytotoxicity to wheat was visually assessed as percent overall injury, compared to an untreated control plot. The overall injury assessments were based on visual ratings of growth inhibition, leaf deformity, epinasty, chlorosis, and delay in maturity. […] Head deformity was evaluated at 10 to 12 weeks after treatment (WAT). The trial was designed as a randomized complete block with four replicates.

[5] = test system: spring wheat (Triticum aestivum; TRZAS); details: in vivo
Description: as §3

[6] = test system: durum wheat (Triticum durum; TRZDU); assay: 2018 field trials, Alberta, Saskatchewan and Manitoba: growth inhibition, head deformity and yield loss on durum wheat; assay type: in vivo; details: herbicide 700 gae/ha; for % Growth Inhibition (66 DAT) TRZDU / % Head Deformity (66 DAT) TRZDU / % Yield Loss (77 DAT) TRZDU: Field Trial 1; for % Yield Loss (77 DAT) TRZDU: relative to commercial standard REXADE A at 20 gae/ha; for % Growth Inhibition (7 DAT) TRZDU: Field Trial 2; for % Growth Inhibition (14 DAT) TRZDU: Field Trial 3
Description: (§4) Growth inhibition was evaluated at 7, 14, and 66 days after treatment (DAT), head deformity was evaluated at 66 days after treatment (DAT), and yield was taken at 77 days after treatment (DAT). All treatments are illustrated in Table 3.
Weed-free tolerance trials were established.

[7] = test system: spring wheat (Triticum aestivum; TRZAS); assay: 2018 field trials, Alberta, Saskatchewan and Manitoba: growth inhibition, head deformity and yield loss on spring wheat; assay type: in vivo; details: for % Growth Inhibition (66 DAT) TRZAS / % Head Deformity (66 DAT) TRZAS / % Yield Loss (77 DAT) TRZAS: Field Trial 1; for % Growth Inhibition (66 DAT) TRZAS / % Head Deformity (66 DAT) TRZAS / % Yield Loss (77 DAT) TRZAS / % Growth Inhibition (7 DAT) TRZAS / % Growth Inhibition (14 DAT) TRZAS: herbicide 700 gae/ha; for % Yield Loss (77 DAT) TRZAS: relative to commercial standard REXADE A at 20 gae/ha; for % Growth Inhibition (7 DAT) TRZAS: Field Trial 2; for % Growth Inhibition (14 DAT) TRZAS: Field Trial 3
Description: as §4
Weed-free tolerance trials were established. […] The primary injury observed with 2,4-D was growth inhibition, head deformity, and yield loss, therefore those are the only evaluations summarized below.

[8] = 42 DAT, herbicide 700 gae/ha, safener 0, Intake @1% v/v
[9] = 55 DAT, herbicide 700 gae/ha, safener 0, Intake @1% v/v
[10] = 71 DAT, herbicide 700 gae/ha, safener 0, Intake @1% v/v

In the case of 2,4-D amine, the wheat yield reduction ([1]; applied at Stage 13) is given as 35% and the wheat yield reduction ([1]; applied at Stage 44) is given as 15%.
With `O=C(O)COc1ccc(Cl)cc1Cl` [2,4-D Choline, 2-hydroxy-N,N,N-trimethylethanaminium 2-(2,4-dichlorophenoxy)acetate] the “% TRZDU Head Deformity” value [2, 8] was 0.0%, the “% TRZDU Head Deformity” value [2, 9] was 3.5% and the “% TRZDU Head Deformity” value [2, 10] was 0.8%. For the same molecule, the “% TRZAS Head Deformity” value [3, 8] was 5.8%, the “% TRZAS Head Deformity” value [3, 9] was 5.8% and the “% TRZAS Head Deformity” value [3, 10] was 3.0%.
In the case of `CCCCC(CC)COC(=O)COc1ccc(Cl)cc1Cl` (stereo not drawn) [2,4-D Ester, 2-ethylhexyl 2-(2,4-dichlorophenoxy)acetate], the “head deformity to durum wheat, peak” value [4] is reported as ≤ 4%, the “% TRZDU Head Deformity” value ([4]; 12 weeks) is reported as 0.0% and the “head deformity to spring wheat, peak” value [5] is reported as ≤ 10%. For the same molecule, the “% Growth Inhibition (66 DAT) TRZDU” value ([6]; safener 0, Agral 90 @ […]) was 1.9%, the “% Head Deformity (66 DAT) TRZDU” value ([6]; safener 0, Agral 90 @ […]) was 5.3% and the “% Growth Inhibition (66 DAT) TRZDU” value ([6]; safener 0, no adjuvant) was 2.6%. The “% Head Deformity (66 DAT) TRZDU” value ([6]; safener 0, no adjuvant) was 5%, the “% Yield Loss (77 DAT) TRZDU” value ([6]; safener 0, Agral 90 @ […]) was 8.8% and the “% Yield Loss (77 DAT) TRZDU” value ([6]; safener 0, no adjuvant) was 6.1%. For the same molecule, the “% Growth Inhibition (7 DAT) TRZDU” value ([6]; safener 0, Agral 90 @ […]) was 8.5%, the “% Growth Inhibition (7 DAT) TRZDU” value ([6]; safener 0, no adjuvant) was 5.5% and the “% Growth Inhibition (14 DAT) TRZDU” value ([6]; safener 0, Agral 90 @ […]) was 8.5%. For the same molecule, the “% Growth Inhibition (14 DAT) TRZDU” value ([6]; safener 0, no adjuvant) was 7%, the “head deformity to durum wheat, peak” value ([2]; Triticum durum (durum wheat), in vivo) was ≤ 4% and the “% TRZDU Head Deformity” value ([2]; Triticum durum (durum wheat), in vivo, 42 days) was 0.0%. For the same molecule, the “% TRZDU Head Deformity” value ([2]; Triticum durum (durum wheat), in vivo, 55 days) was 4.3%, the “% TRZDU Head Deformity” value ([2]; Triticum durum (durum wheat), in vivo, 71 days) was 3.0% and the “head deformity to spring wheat, peak” value ([3]; Triticum aestivum (spring wheat), in vivo) was ≤ 8%. The “% TRZAS Head Deformity” value ([3]; Triticum aestivum (spring wheat), in vivo, 42 days) was 6.5%, the “% TRZAS Head Deformity” value ([3]; Triticum aestivum (spring wheat), in vivo, 55 days) was 7.5% and the “% TRZAS Head Deformity” value ([3]; Triticum aestivum (spring wheat), in vivo, 71 days) was 7.8%. The wheat yield reduction ([1]; applied at Stage 13) was 39%, the wheat yield reduction ([1]; applied at Stage 44) was 16% and the “injury” value ([7]; 2018 trials, applied alone or with Agral 90, spring and durum wheat) was “caused growth inhibition, head deformity and yield loss”. For the same molecule, the “% Growth Inhibition (66 DAT) TRZAS” value ([7]; safener 0, Agral 90 @ […]) was 9.1%, the “% Head Deformity (66 DAT) TRZAS” value ([7]; safener 0, Agral 90 @ […]) was 40% and the “% Growth Inhibition (66 DAT) TRZAS” value ([7]; safener 0, no adjuvant) was 10.1%. The “% Head Deformity (66 DAT) TRZAS” value ([7]; safener 0, no adjuvant) was 40%, the “% Yield Loss (77 DAT) TRZAS” value ([7]; safener 0, Agral 90 @ […]) was 3.3% and the “% Yield Loss (77 DAT) TRZAS” value ([7]; safener 0, no adjuvant) was 4.5%. The “% Growth Inhibition (7 DAT) TRZAS” value ([7]; safener 0, Agral 90 @ […]) was 8%, the “% Growth Inhibition (7 DAT) TRZAS” value ([7]; safener 0, no adjuvant) was 4.5% and the “% Growth Inhibition (14 DAT) TRZAS” value ([7]; safener 0, Agral 90 @ […]) was 7.5%. The “% Growth Inhibition (14 DAT) TRZAS” value ([7]; safener 0, no adjuvant) was 7%.
